Data: patent US6808904B2, “Herbicide-tolerant protox genes produced by DNA shuffling” (priority 1994, dated 2004)

Key:
[1] = target: T1, plant protox mutants (Arabidopsis protox-1) in SASX38 (Arabidopsis thaliana, UniProt P55826, A220L/T56K/Y426L); test: Bacterial cross-tolerance testing of resistant mutant plasmids in SASX38, Arabidopsis protox-1 mutants; format: cell-based; parameters: key to Cross tolerance, AraC-1Val / Cross tolerance, AraC-2Cys / Cross tolerance, AraC-1Thr / Cross tolerance, AraC-3Thr / Cross tolerance, AraC-2Ile / Cross tolerance, AraC-2Cys + AraC425Ser: + = 10× or more tolerant than WT; ++ = 100× or more tolerant than WT; − = no cross tolerance; conditions: mutant AraC-1Leu + AraC-2Leu
T1 construct: contains only 17 amino acids of the putative chloroplast transit peptide; expressed in transfected cells; host or cells: E. coli SASX38 (hemG mutant)
Procedure: (§1) Resistant mutant plasmids, originally identified based on resistance against a single protox inhibitory herbicide, were tested against a spectrum of other protox inhibiting compounds. For this test, the SASX38 strain containing the wild-type plasmid is plated on a range of concentrations of each compound to determine the lethal concentration for each one. Resistant mutant plasmids in SASX38 are plated and scored for the ability to survive on a concentration of each compound at least 10 fold higher than the concentration that is lethal to the SASX38 strain containing the wild-type plasmid.

[2] = target: T2, plant protox mutants (Arabidopsis protox-1) in SASX38 (Arabidopsis thaliana, UniProt P55826, A220L/T56K); test: as above; format: cell-based; parameters: key to Cross tolerance, AraC-1Val / Cross tolerance, AraC-2Cys / Cross tolerance, AraC-1Thr / Cross tolerance, AraC-3Thr / Cross tolerance, AraC-2Ile / Cross tolerance, AraC-2Cys + AraC425Ser: + = 10× or more tolerant than WT; ++ = 100× or more tolerant than WT; − = no cross tolerance; conditions: mutant AraC-1Leu
T2 construct: contains only 17 amino acids of the putative chloroplast transit peptide; expressed in transfected cells; host or cells: E. coli SASX38 (hemG mutant)
Procedure: as §1

[3] = target: T3, plant protox mutants (Arabidopsis protox-1) in SASX38 (Arabidopsis thaliana, UniProt P55826, T56K/Y426C); test: as above; format: cell-based; parameters: key to Cross tolerance, AraC-1Val / Cross tolerance, AraC-2Cys / Cross tolerance, AraC-1Thr / Cross tolerance, AraC-3Thr / Cross tolerance, AraC-2Ile / Cross tolerance, AraC-2Cys + AraC425Ser: + = 10× or more tolerant than WT; ++ = 100× or more tolerant than WT; − = no cross tolerance; conditions: mutant AraC-2Cys vs WT plasmid in SASX38
T3 construct: contains only 17 amino acids of the putative chloroplast transit peptide; expressed in transfected cells; host or cells: E. coli SASX38 (hemG mutant)
Procedure: as §1

[4] = target: T4, plant protox mutants (Arabidopsis protox-1) in SASX38 (Arabidopsis thaliana, UniProt P55826, A220V/T56K); test: as above; format: cell-based; parameters: key to Cross tolerance, AraC-1Val / Cross tolerance, AraC-2Cys / Cross tolerance, AraC-1Thr / Cross tolerance, AraC-3Thr / Cross tolerance, AraC-2Ile / Cross tolerance, AraC-2Cys + AraC425Ser: + = 10× or more tolerant than WT; ++ = 100× or more tolerant than WT; − = no cross tolerance; conditions: mutant AraC-1Val vs WT plasmid in SASX38
T4 construct: contains only 17 amino acids of the putative chloroplast transit peptide; expressed in transfected cells; host or cells: E. coli SASX38 (hemG mutant)
Procedure: as §1

[5] = target: T5, plant protox mutants (Arabidopsis protox-1) in SASX38 (Arabidopsis thaliana, UniProt P55826, T56K/Y426I); test: as above; format: cell-based; parameters: key to Cross tolerance, AraC-1Val / Cross tolerance, AraC-2Cys / Cross tolerance, AraC-1Thr / Cross tolerance, AraC-3Thr / Cross tolerance, AraC-2Ile / Cross tolerance, AraC-2Cys + AraC425Ser: + = 10× or more tolerant than WT; ++ = 100× or more tolerant than WT; − = no cross tolerance; conditions: mutant AraC-2Ile
T5 construct: contains only 17 amino acids of the putative chloroplast transit peptide; expressed in transfected cells; host or cells: E. coli SASX38 (hemG mutant)
Procedure: as §1

[6] = tested on: Arabidopsis line expressing AraC-2Ile+AraC305Leu; test: Cross tolerance in a seed germination assay, homozygous Arabidopsis line with AraC-2Ile+AraC305Leu; format: in vivo, Arabidopsis thaliana; conditions: AraC-2Ile+AraC305Leu line vs wt
Procedure: Using the procedure described above, an Arabidopsis protox-1 cDNA containing a TAC to ATG (Tyrosine to Methionine) change at nucleotides 1306-1308 in the protox-1 sequence (SEQ ID NO:1) was fused to the native protox-1 promoter fragment and transformed into Arabidopsis thaliana. […] Seed from the vacuum infiltrated plants was collected and plated on a range (10.0 nM-1.0 uM) of a protox inhibitory aryluracil herbicide of formula XVII. Multiple experiments with wild type Arabidopsis have shown that a 10.0 nM concentration of this compound is sufficient to prevent normal seedling germination. Transgenic seeds expressing the AraC-2Met altered enzyme fused to the native protox-1 promoter produced normal Arabidopsis seedlings at herbicide concentrations up to 500 nM, indicating at least 50-fold higher herbicide tolerance when compared to wild-type Arabidopsis. This promoter/altered protox enzyme fusion therefore functions as an effective selectable marker for plant transformation. Several of the plants that germinated on 100.0 nM of protox-inhibiting herbicide were transplanted to soil, grown 2-3 weeks, and tested in a spray assay with various concentrations of the protox-inhibiting herbicide. When compared to empty vector control transformants, the AraPT1Pro/AraC-2Met transgenics were >10-fold more tolerant to the herbicide spray.
Using the procedure described above, an Arabidopsis protox-1 cDNA containing both a TAC to ATC (tyrosine to isoleucine) change at nucleotides 1306-1308 and a TCA to TTA (serine to leucine) change at nucleotides 945-947 in the protox-1 sequence (SEQ ID NO:1) was fused to the native protox-1 promoter fragment and transformed into Arabidopsis thaliana.

T3 sequence (P55826 41-537 T56K/Y426C): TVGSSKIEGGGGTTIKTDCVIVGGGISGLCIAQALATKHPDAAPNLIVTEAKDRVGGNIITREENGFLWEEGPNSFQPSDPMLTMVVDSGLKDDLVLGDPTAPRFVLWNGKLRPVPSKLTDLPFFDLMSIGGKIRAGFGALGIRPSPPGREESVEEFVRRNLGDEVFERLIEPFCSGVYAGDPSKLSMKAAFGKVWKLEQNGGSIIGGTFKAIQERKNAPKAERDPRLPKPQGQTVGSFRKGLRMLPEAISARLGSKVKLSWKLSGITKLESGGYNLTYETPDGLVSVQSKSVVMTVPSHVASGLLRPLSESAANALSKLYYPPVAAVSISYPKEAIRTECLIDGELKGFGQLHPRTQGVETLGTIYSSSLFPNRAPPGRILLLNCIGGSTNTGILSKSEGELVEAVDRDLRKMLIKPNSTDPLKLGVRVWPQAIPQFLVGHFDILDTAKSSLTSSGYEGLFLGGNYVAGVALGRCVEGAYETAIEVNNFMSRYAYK
T4 sequence (P55826 41-537 T56K/A220V): as the sequence (P55826 41-537 T56K/Y426C) above, with A180V, C386Y counted along it
T5 sequence (P55826 41-537 T56K/Y426I): as the sequence (P55826 41-537 T56K/Y426C) above, with C386I counted along it
T2 sequence (P55826 41-537 T56K/A220L): as the sequence (P55826 41-537 T56K/Y426C) above, with A180L, C386Y counted along it
T1 sequence (P55826 41-537 T56K/A220L/Y426L): as the sequence (P55826 41-537 T56K/Y426C) above, with A180L, C386L counted along it

Row | Compound | Cross tolerance, AraC-1Leu + AraC-2Leu [1] | Cross tolerance, AraC-1Leu [2] | Cross tolerance, AraC-2Cys [3] | Cross tolerance, AraC-1Val [4] | Cross tolerance, AraC-2Ile [5] | Tolerance [6]
1 | CCOC(=O)COC(=O)c1cc(Oc2ccc(C(F)(F)F)cc2Cl)ccc1[N+](=O)[O-] [IV] | ++ (++ = 100× or more tolerant than WT) | ++ (++ = 100× or more tolerant than WT) | − | ++ (++ = 100× or more tolerant than WT) | − | ± (± ≦ 10× more tolerant than wt)
2 | COC(=O)CSc1cc(N=c2sc(=O)n3n2CCCC3)c(F)cc1Cl [VIIa] | ++ (++ = 100× or more tolerant than WT) | ++ (++ = 100× or more tolerant than WT) | + (+ = 10× or more tolerant than WT) | + (+ = 10× or more tolerant than WT) | ++ (++ = 100× or more tolerant than WT) | ++ (++ ≧ 100× more tolerant than wt)
3 | CCCCCOC(=O)COc1cc(N2C(=O)C3=C(CCCC3)C2=O)c(F)cc1Cl [XIV] | ++ (++ = 100× or more tolerant than WT) | ++ (++ = 100× or more tolerant than WT) | − | + (+ = 10× or more tolerant than WT) | ++ (++ = 100× or more tolerant than WT) | + (+ ≧ 10× more tolerant than wt)
4 | CC(C)OC(=O)c1cc(-n2c(=O)cc(C(F)(F)F)n(C)c2=O)ccc1Cl [XI] | ++ (++ = 100× or more tolerant than WT) | ++ (++ = 100× or more tolerant than WT) | + (+ = 10× or more tolerant than WT) | − | ++ (++ = 100× or more tolerant than WT) | ++ (++ ≧ 100× more tolerant than wt)
